Where “and” joins values, the source holds several entries; their conditions need not be identical. Equal values may be shown once.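 1) Cells in 96-well plates. 2) Compound, 48 h, 5 concentrations. 3) Linear interpolation between surrounding doses. 4) Unreached endpoint = highest concentration. GI50 is the concentration that inhibits growth by half. Definition used: TGI = concentration required for complete inhibition of growth.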
Tests used:
Assay in all cases: DTP human tumour cell line panel, 48 h
HCC-2998 colon = system: HCC-2998 colon
PC-3 prostate = system: PC-3 prostate
SK-MEL-28 melanoma = system: SK-MEL-28 melanoma
NCI-H522 lung = system: NCI-H522 lung
SNB-19 CNS = system: SNB-19 CNS
RPMI-8226 leukemia = system: RPMI-8226 leukemia
HS 578T breast = system: HS 578T breast
NCI/ADR-RES ovarian = system: NCI/ADR-RES ovarian
A549 NSCLC = system: A549 NSCLC
SF-268 CNS = system: SF-268 CNS
MCF7 breast = system: MCF7 breast
NCI-H460 lung = system: NCI-H460 lung
UACC-257 melanoma = system: UACC-257 melanoma
DU-145 prostate = system: DU-145 prostate
TK-10 renal = system: TK-10 renal
NCI-H23 lung = system: NCI-H23 lung
UO-31 renal = system: UO-31 renal
SK-MEL-5 melanoma = system: SK-MEL-5 melanoma
RXF 393 renal = system: RXF 393 renal
NCI-H226 lung = system: NCI-H226 lung
U251 CNS = system: U251 CNS
MDA-MB-231 breast = system: MDA-MB-231 breast
786-0 renal = system: 786-0 renal
OVCAR-4 ovarian = system: OVCAR-4 ovarian
MDA-MB-435 = system: MDA-MB-435
OVCAR-8 ovarian = system: OVCAR-8 ovarian
IGROV1 ovarian = system: IGROV1 ovarian
HT29 colon = system: HT29 colon
SN12C renal = system: SN12C renal
CAKI-1 renal = system: CAKI-1 renal
HOP-62 NSCLC = system: HOP-62 NSCLC
SK-OV-3 ovarian = system: SK-OV-3 ovarian
T-47D breast = system: T-47D breast
HCT-15 colon = system: HCT-15 colon
SW-620 colon = system: SW-620 colon
LOX IMVI melanoma = system: LOX IMVI melanoma
MALME-3M melanoma = system: MALME-3M melanoma
UACC-62 melanoma = system: UACC-62 melanoma
OVCAR-3 ovarian = system: OVCAR-3 ovarian
SF-295 CNS = system: SF-295 CNS
SF-539 CNS = system: SF-539 CNS
EKVX NSCLC = system: EKVX NSCLC
SNB-75 CNS = system: SNB-75 CNS
HCT-116 colon = system: HCT-116 colon
M14 melanoma = system: M14 melanoma
KM12 colon = system: KM12 colon
COLO 205 colon = system: COLO 205 colon
SK-MEL-2 melanoma = system: SK-MEL-2 melanoma
BT-549 breast = system: BT-549 breast
HOP-92 NSCLC = system: HOP-92 NSCLC
MOLT-4 leukemia = system: MOLT-4 leukemia
OVCAR-5 ovarian = system: OVCAR-5 ovarian
ACHN renal = system: ACHN renal
A498 renal = system: A498 renal

Structure (SMILES): COCCNCCc1cccc(Nc2ncc3c(n2)-c2ccccc2C(c2ccccc2F)C3)c1 (stereo not drawn)
- GI50 (HCC-2998 colon): 1770 nM and 2080 nM
- TGI (HCC-2998 colon): 3280 nM and 3650 nM
- GI50 (PC-3 prostate): 1490 nM and 1390 nM
- TGI (PC-3 prostate): 2890 nM and 2860 nM
- GI50 (SK-MEL-28 melanoma): 1600 nM and 1760 nM
- TGI (SK-MEL-28 melanoma): 2970 nM and 3180 nM
- GI50 (NCI-H522 lung): 1530 nM and 1520 nM
- TGI (NCI-H522 lung): 2950 nM
- GI50 (SNB-19 CNS): 1750 nM and 1810 nM
- TGI (SNB-19 CNS): 3180 nM and 3280 nM
- GI50 (RPMI-8226 leukemia): 1520 nM and 1740 nM
- TGI (RPMI-8226 leukemia): 3700 nM and 4230 nM
- GI50 (HS 578T breast): 1150 nM and 1270 nM
- TGI (HS 578T breast): 3460 nM and 3790 nM
- GI50 (NCI/ADR-RES ovarian): 1790 nM and 1760 nM
- TGI (NCI/ADR-RES ovarian): 3430 nM and 3450 nM
- GI50 (A549 NSCLC): 1780 nM and 1880 nM
- TGI (A549 NSCLC): 3330 nM and 3510 nM
- GI50 (SF-268 CNS): 1440 nM and 1640 nM
- TGI (SF-268 CNS): 3070 nM and 3190 nM
- GI50 (MCF7 breast): 1580 nM and 1780 nM
- TGI (MCF7 breast): 3400 nM and 3690 nM
- GI50 (NCI-H460 lung): 1330 nM and 1700 nM
- TGI (NCI-H460 lung): 3080 nM and 3470 nM
- GI50 (UACC-257 melanoma): 2010 nM and 2150 nM
- TGI (UACC-257 melanoma): 3540 nM and 4050 nM
- GI50 (DU-145 prostate): 1530 nM and 1620 nM
- TGI (DU-145 prostate): 2980 nM and 3040 nM
- GI50 (TK-10 renal): 1380 nM and 1600 nM
- TGI (TK-10 renal): 2740 nM and 2980 nM
- GI50 (NCI-H23 lung): 1650 nM and 1750 nM
- TGI (NCI-H23 lung): 3100 nM and 3320 nM
- GI50 (UO-31 renal): 685 nM and 1290 nM
- TGI (UO-31 renal): 2060 nM and 2570 nM
- GI50 (SK-MEL-5 melanoma): 1650 nM
- TGI (SK-MEL-5 melanoma): 3040 nM and 3030 nM
- GI50 (RXF 393 renal): 1110 nM and 1240 nM
- TGI (RXF 393 renal): 2390 nM and 2590 nM
- GI50 (NCI-H226 lung): 1310 nM and 1800 nM
- TGI (NCI-H226 lung): 2940 nM and 3670 nM
- GI50 (U251 CNS): 1240 nM and 1820 nM
- TGI (U251 CNS): 2570 nM and 3280 nM
- GI50 (MDA-MB-231 breast): 1670 nM and 1450 nM
- TGI (MDA-MB-231 breast): 3110 nM and 2840 nM
- GI50 (786-0 renal): 1430 nM and 1760 nM
- TGI (786-0 renal): 2910 nM and 3300 nM
- GI50 (OVCAR-4 ovarian): 1340 nM and 1720 nM
- TGI (OVCAR-4 ovarian): 2740 nM and 3180 nM
- GI50 (MDA-MB-435): 1750 nM and 1820 nM
- TGI (MDA-MB-435): 3250 nM and 3320 nM
- GI50 (OVCAR-8 ovarian): 1790 nM and 1870 nM
- TGI (OVCAR-8 ovarian): 3380 nM and 3900 nM
- GI50 (IGROV1 ovarian): 1000 nM and 1210 nM
- TGI (IGROV1 ovarian): 2380 nM and 2750 nM
- GI50 (HT29 colon): 1120 nM and 1310 nM
- TGI (HT29 colon): 2360 nM and 2680 nM
- GI50 (SN12C renal): 1320 nM and 1040 nM
- TGI (SN12C renal): 2700 nM and 2340 nM
- GI50 (CAKI-1 renal): 1270 nM and 1260 nM
- TGI (CAKI-1 renal): 2540 nM
- GI50 (HOP-62 NSCLC): 1600 nM and 1710 nM
- TGI (HOP-62 NSCLC): 3110 nM and 3300 nM
- GI50 (SK-OV-3 ovarian): 1710 nM and 2450 nM
- TGI (SK-OV-3 ovarian): 3140 nM and 6340 nM
- GI50 (T-47D breast): 1760 nM and 1820 nM
- TGI (T-47D breast): 3600 nM and 3920 nM
- GI50 (HCT-15 colon): 1190 nM and 1260 nM
- TGI (HCT-15 colon): 2560 nM and 2600 nM
- GI50 (SW-620 colon): 2400 nM
- TGI (SW-620 colon): 4630 nM
- GI50 (LOX IMVI melanoma): 1250 nM and 1230 nM
- TGI (LOX IMVI melanoma): 2560 nM and 2500 nM
- GI50 (MALME-3M melanoma): 1770 nM and 1870 nM
- TGI (MALME-3M melanoma): 3410 nM and 3540 nM
- GI50 (UACC-62 melanoma): 1720 nM and 1760 nM
- TGI (UACC-62 melanoma): 3120 nM and 3160 nM
- GI50 (OVCAR-3 ovarian): 1760 nM and 1600 nM
- TGI (OVCAR-3 ovarian): 3480 nM and 3100 nM
- GI50 (SF-295 CNS): 1720 nM and 1610 nM
- TGI (SF-295 CNS): 3110 nM and 2990 nM
- GI50 (SF-539 CNS): 1320 nM and 1500 nM
- TGI (SF-539 CNS): 2620 nM and 2860 nM
- GI50 (EKVX NSCLC): 1630 nM and 1920 nM
- TGI (EKVX NSCLC): 3130 nM and 3510 nM
- GI50 (SNB-75 CNS): 1170 nM and 727 nM
- TGI (SNB-75 CNS): 2480 nM and 2090 nM
- GI50 (HCT-116 colon): 1210 nM and 1660 nM
- TGI (HCT-116 colon): 2600 nM and 3120 nM
- GI50 (M14 melanoma): 1560 nM and 1940 nM
- TGI (M14 melanoma): 3060 nM and 3780 nM
- GI50 (KM12 colon): 1770 nM and 1790 nM
- TGI (KM12 colon): 3430 nM and 3370 nM
- GI50 (COLO 205 colon): 1880 nM and 1920 nM
- TGI (COLO 205 colon): 3670 nM and 3630 nM
- GI50 (SK-MEL-2 melanoma): 1710 nM and 1940 nM
- TGI (SK-MEL-2 melanoma): 3190 nM and 3440 nM
- GI50 (BT-549 breast): 1550 nM and 7790 nM
- TGI (BT-549 breast): 2950 nM and 25600 nM
- GI50 (HOP-92 NSCLC): 1020 nM and 1240 nM
- TGI (HOP-92 NSCLC): 2270 nM and 2650 nM
- GI50 (MOLT-4 leukemia): 1180 nM
- TGI (MOLT-4 leukemia): 4150 nM
- GI50 (OVCAR-5 ovarian): 1420 nM and 1570 nM
- TGI (OVCAR-5 ovarian): 2760 nM and 3020 nM
- GI50 (ACHN renal): 1030 nM and 1050 nM
- TGI (ACHN renal): 2200 nM and 2230 nM
- GI50 (A498 renal): 345 nM and 1610 nM
- TGI (A498 renal): 1750 nM and 3140 nM
